Assay results reported in patent US11612606B2, “8-aminoisoquinoline compounds and uses thereof” (priority 2018, dated 2023).
pKi: −log10 of the molar value. Where a name gives a salt, the structure may show the parent alone. Read-outs that look alike come from different tables or passages of the source.

Legend:
[1] = target: HPK full length, T165E S171E (Homo sapiens (Human), UniProt Q92918, S171E/T165E); assay: HPK1-FL HTRF enzymatic assay ("HTRF"); format: biochemical; conditions: ATP 1 mM, read-out: HPK1 Ki
Chain of HPK full length, T165E S171E (Q92918 whole entry T165E/S171E, looked up): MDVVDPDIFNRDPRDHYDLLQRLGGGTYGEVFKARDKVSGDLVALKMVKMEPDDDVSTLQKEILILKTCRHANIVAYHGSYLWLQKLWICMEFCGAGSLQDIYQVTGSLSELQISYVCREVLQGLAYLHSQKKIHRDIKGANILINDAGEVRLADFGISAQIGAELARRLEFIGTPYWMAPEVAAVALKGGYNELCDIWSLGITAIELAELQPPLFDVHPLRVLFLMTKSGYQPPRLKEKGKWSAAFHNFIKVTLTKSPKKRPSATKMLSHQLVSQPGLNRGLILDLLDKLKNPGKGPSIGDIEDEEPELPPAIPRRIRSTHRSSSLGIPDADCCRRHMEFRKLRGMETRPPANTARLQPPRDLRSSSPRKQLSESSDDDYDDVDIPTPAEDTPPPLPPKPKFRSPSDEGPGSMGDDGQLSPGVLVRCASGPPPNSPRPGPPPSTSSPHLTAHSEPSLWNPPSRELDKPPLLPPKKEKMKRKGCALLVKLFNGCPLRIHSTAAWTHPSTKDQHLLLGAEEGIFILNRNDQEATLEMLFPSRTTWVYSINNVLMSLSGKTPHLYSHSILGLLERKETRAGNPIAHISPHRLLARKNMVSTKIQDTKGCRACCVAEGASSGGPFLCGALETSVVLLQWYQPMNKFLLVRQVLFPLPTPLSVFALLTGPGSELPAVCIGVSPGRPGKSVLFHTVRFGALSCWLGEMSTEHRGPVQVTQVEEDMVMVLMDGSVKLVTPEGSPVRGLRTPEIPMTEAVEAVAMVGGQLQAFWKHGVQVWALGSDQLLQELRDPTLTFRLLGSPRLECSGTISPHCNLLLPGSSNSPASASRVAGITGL
In short: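 HTRF detection of phosphorylated biotin-SLP-76 used Eu-anti-pSLP76 antibody and SA-XL665, read after 60 min. The kinase reaction ran 60 min at […], following a 30-min compound preincubation with the full-length enzyme.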

[2] = test system: primary human pan T cells; assay: Human T-cell IL2 induction assay; format: cell-based
Experimental: Assay Principle: Anti-CD3 and anti-CD28 activates TCR signaling in primary human pan T cells leading to IL-2 promoter induction. Secreted IL-2 in cell culture supernatant is detected by electrochemiluminescence using a capture antibody against IL-2 and an anti-IL-2 antibody labeled with SULFO-tag. Also see www.mesoscale.com for additional electrochemiluminescence technology information.
Assay Procedure: Incubate primary human pan T cells with varying concentrations of test compounds for 30 minutes in a humidified incubator at 37° C. and 5% CO2. Transfer cells to a plate pre-coated with a fixed concentration of anti-human CD3 (determined separately for each donor lot) and add soluble anti-human CD28 (final concentration=1 μg/ml). Stimulate cells in a humidified incubator at 37° C. and 5% CO2 for 4 hours. Transfer 25 μl of supernatant to a MSD single spot plate pre-coated with an anti-human IL-2 antibody. Incubate MSD plate overnight at 4° C. with gentle shaking. Wash MSD plate 4× with wash buffer. Add SULFO-tagged detection antibody at a 1:50 dilution and incubate at room temperature shaking for 2 hours. Wash MSD plate 4× with wash buffer and add 150 μl 2×MSD read buffer. Read on an MSD instrument. Normalize data to stimulated/untreated controls to calculate % activity at each concentration of compound.
Instrumentation: • Biomek FX for liquid handling (Beckman Coulter) • MSD SECTOR S 600 (Meso Scale Discovery)
Exemplary compounds of Formula (I) were tested in the human T-cell IL-2 induction assays.

SMILES	pKi [1]	% IL-2 increase relative to untreated cells ([2]; assayed concentration 2.778 μM) [%]	also measured
Cc1c(-c2cc3cc(NC(=O)O[C@H]4COC[C@@H]4F)ncc3c(N)c2F)cnc2c1NCCO2 (single isomer, unassigned) [Compound 477b]	10.77	–	% IL-2 increase relative to untreated cells ([2]; assayed concentration 5.469 μM): 1494%
Cc1c(-c2cc3cc(NC(=O)O[C@H]4CCC[C@@H]4C#N)ncc3c(N)c2F)cnc2c1NCCO2 (single isomer, unassigned) [Compound 482b]	> 10.89	1719	–
Cc1c(-c2cc3cc(NC(=O)O[C@@H]4CCC(=O)N(C)C4)ncc3c(N)c2F)cnc2c1NCCO2 [Compound 409b, (R)-1-Methyl-6-oxopiperidin-3-yl (8-amino-7-fluoro-6-(8-methyl-2,3-dihydro-1H-pyrido[2,3-b][1,4]oxazin-7-yl)isoquinolin-3-yl)carbamate]	10.32	2838	–
Cc1c(-c2cc3cc(NC(=O)O[C@H]4CCN(C)C4)ncc3c(N)c2F)cnc2c1NCCO2 [Compound 411a, (S)-1-Methylpyrrolidin-3-yl (8-amino-7-fluoro-6-(8-methyl-2,3-dihydro-1H-pyrido[2,3-b][1,4]oxazin-7-yl)isoquinolin-3-yl)carbamate]	9.60	2119	–
Cc1c(-c2cc3cc(NC(=O)O[C@@H]4CCCN(C)C4)ncc3c(N)c2F)cnc2c1NCCO2 [Compound 416a, (R)-1-Methylpiperidin-3-yl (8-amino-7-fluoro-6-(8-methyl-2,3-dihydro-1H-pyrido[2,3-b][1,4]oxazin-7-yl)isoquinolin-3-yl)carbamate]	10.12	2989	–
Cc1c(-c2cc3cc(NC(=O)O[C@@H]4CCN(C5COC5)C[C@H]4F)ncc3c(N)c2F)cnc2c1NCCO2 [Compound 445b, (3R,4R)-3-Fluoro-1-(oxetan-3-yl)piperidin-4-yl(8-amino-7-fluoro-6-(8-methyl-2,3-dihydro-1H-pyrido[2,3-b][1,4]oxazin-7-yl)isoquinolin-3-yl)carbamate]	–	1436	–
Cc1c(-c2cc3cc(NC(=O)OC4CC(C)(O)C4)ncc3c(N)c2F)cnc2c1NCCO2 (stereo not drawn) [Compound 486, (3-Hydroxy-3-methyl-cyclobutyl) N-[8-amino-7-fluoro-6-(8-methyl-2,3-dihydro-1H-pyrido[2,3-b][1,4]oxazin-7-yl)-3-isoquinolyl]carbamate]	> 10.89	1400	–
CC[C@]1(O)C[C@H](OC(=O)Nc2cc3cc(-c4cnc5c(c4C)NCCO5)c(F)c(N)c3cn2)C1 [Compound 512b, (1r,3s)-3-Ethyl-3-hydroxycyclobutyl (8-amino-7-fluoro-6-(8-methyl-2,3-dihydro-1H-pyrido[2,3-b][1,4]oxazin-7-yl)isoquinolin-3-yl)carbamate hydrochloride]	–	2613	pKi ([1]; hydrochloride): > 10.89
Cc1c(-c2cc3cc(NC(=O)O[C@H]4C[C@@](C)(O)[C@H]4C)ncc3c(N)c2F)cnc2c1NCCO2 [Compound 526b, (1S,2S,3R)-3-Hydroxy-2,3-dimethylcyclobutyl (8-amino-7-fluoro-6-(8-methyl-2,3-dihydro-1H-pyrido[2,3-b][1,4]oxazin-7-yl)isoquinolin-3-yl)carbamate]	10.80	970	–
Cc1c(-c2cc3cc(NC(=O)O[C@H]4C[C@](C)(O)[C@@H]4C)ncc3c(N)c2F)cnc2c1NCCO2 [Compound 526c, (1S,2R,3S)-3-Hydroxy-2,3-dimethylcyclobutyl (8-amino-7-fluoro-6-(8-methyl-2,3-dihydro-1H-pyrido[2,3-b][1,4]oxazin-7-yl)isoquinolin-3-yl)carbamate]	10.82	1677	–
Cc1c(-c2cc3cc(NC(=O)O[C@H]4CC[C@@H]4C#N)ncc3c(N)c2F)cnc2c1NCCO2 [Compound 535a, (1S,2R)-2-Cyanocyclobutyl (8-amino-7-fluoro-6-(8-methyl-2,3-dihydro-1H-pyrido[2,3-b][1,4]oxazin-7-yl)isoquinolin-3-yl)carbamate]	> 10.89	831	–
Cc1c(-c2cc3cc(NC(=O)O[C@H]4C[C@@H](CC#N)C4)ncc3c(N)c2F)cnc2c1NCCO2 [Compound 536b, (1s,3r)-3-(Cyanomethyl)cyclobutyl (8-amino-7-fluoro-6-(8-methyl-2,3-dihydro-1H-pyrido[2,3-b][1,4]oxazin-7-yl)isoquinolin-3-yl)carbamate]	–	–	% IL-2 increase relative to untreated cells ([2]; assayed concentration 8.333 μM): 2280%
Cc1c(-c2cc3cc(NC(=O)O[C@H]4C[C@H](N5CCOCC5)C4)ncc3c(N)c2F)cnc2c1NCCO2 [Compound 550a, (1r,3r)-3-Morpholinocyclobutyl (8-amino-7-fluoro-6-(8-methyl-2,3-dihydro-1H-pyrido[2,3-b][1,4]oxazin-7-yl)isoquinolin-3-yl)carbamate]	> 10.89	1059	–
Cc1c(-c2cc3cc(NC(=O)NC4CCOCC4)ncc3c(N)c2F)cnc2c1NCCO2 [Compound 701, 1-(8-Amino-7-fluoro-6-(8-methyl-2,3-dihydro-1H-pyrido[2,3-b][1,4]oxazin-7-yl)isoquinolin-3-yl)-3-(tetrahydro-2H-pyran-4-yl)urea]	> 10.89	4163	–
Cc1c(-c2cc3cc(NC(=O)N[C@H]4CCC[C@H]4F)ncc3c(N)c2F)cnc2c1NCCO2 [Compound 727b, 1-[8-Amino-7-fluoro-6-(8-methyl-2,3-dihydro-1H-pyrido[2,3-b][1,4]oxazin-7-yl)-3-isoquinolyl]-3-[(1S,2R)-2-fluorocyclopentyl]urea]	> 10.89	–	% IL-2 increase relative to untreated cells ([2]; assayed concentration 0.926 μM): 938%
Cc1c(N)cncc1-c1cc2cc(NC(=O)NC3CCCC3)ncc2c(N)c1F [Compound 749, 1-(8-Amino-6-(5-amino-4-methylpyridin-3-yl)-7-fluoroisoquinolin-3-yl)-3-cyclopentylurea]	9.99	–	–
Cc1c(-c2cc3cc(NC(=O)N(C)C4CCC4)ncc3c(N)c2F)cnc2c1NCCO2 [Compound 752, 3-(8-Amino-7-fluoro-6-(8-methyl-2,3-dihydro-1H-pyrido[2,3-b][1,4]oxazin-7-yl)isoquinolin-3-yl)-1-cyclobutyl-1-methylurea]	9.28	–	–
Cc1c(-c2cc3cc(NC(=O)N4CC5(CCOCC5)C4)ncc3c(N)c2F)cnc2c1NCCO2 [Compound 753, N-(8-Amino-7-fluoro-6-(8-methyl-2,3-dihydro-1H-pyrido[2,3-b][1,4]oxazin-7-yl)isoquinolin-3-yl)-7-oxa-2-azaspiro[3.5]nonane-2-carboxamide]	10.41	–	–
Cc1c(-c2cc3cc(NC(=O)N4CC(C)(O)C4)ncc3c(N)c2F)cnc2c1NCCO2 [Compound 754]	9.69	–	–
Cc1c(-c2cc3cc(NC(=O)N4CCC4)ncc3c(N)c2F)cnc2c1NCCO2 [Compound 756, N-(8-Amino-7-fluoro-6-(8-methyl-2,3-dihydro-1H-pyrido[2,3-b][1,4]oxazin-7-yl)isoquinolin-3-yl)azetidine-1-carboxamide]	10.70	–	–
